Values of other authors in US20230172920A1, “DOSING REGIMEN FOR TREATING A DISEASE MODULATED BY CSF-1R” (Novartis AG, priority 2020, published 2023).
Where two headings read alike, the source gives them in different places.

How the values were obtained:
[1] = Phase 2b/3 clinical trial; cited from earlier work
[2] = cited from earlier work

| Molecule | serum enzyme increases in clinical trials ([2]; human, in vivo) | also measured |
| --- | --- | --- |
| Cc1ccc(NC(=O)c2ccc(CN3CCN(C)CC3)cc2)cc1Nc1nc(-c2cccnc2)cs1 [masitinib] | – | disease progression in patients with ALS [1]: significant delay of disease progression |
| FPA008: monoclonal antibody against CSF-1R | Asymptomatic serum enzyme increases | – |
| FC(F)(F)c1ccc(CNc2ccc(Cc3c[nH]c4ncc(Cl)cc34)cn2)cn1 [PLX3397, reference compound] | – | serum enzyme increases in clinical trials ([2]; literature reports): Asymptomatic serum enzyme increases |
| MCS110: monoclonal antibody against CSF-1 ligand (antibody, chains of the INN, looked up, V domains shown) VH: QVQLQESGPGLVKPSQTLSLTCTVSDYSITSDYAWNWIRQFPGKGLEWMGYISYSGSTSYNPSLKSRITISRDTSKNQFSLQLNSVTAADTAVYYCASFDYAHAMDYWGQGTTVTVSS VL: DIVLTQSPAFLSVTPGEKVTFTCQASQSIGTSIHWYQQKTDQAPKLLIKYASESISGIPSRFSGSGSGTDFTLTISSVEAEDAADYYCQQINSWPTTFGGGTKLEIK | Asymptomatic serum enzyme increases | – |
